# Values joined by “and” are separate entries in the source; they are usually repeats but may differ in a detail not shown here. Equal entries are not always repeated. “Also recorded” adds a separate entry of the source. Where two headings read alike, the source gives them in different places.
# Columns and labels:
# DENV1-4 = assay: Inhibition of replication across dengue serotypes (CFI); type: cell-based; details: Dengue virus, DENV1 / DENV2, read-out: EC50 values for the other three serotypes
# DENV2 [1] = details: cited from earlier work
# DENV2 [2] = assay: Lethal ADE mouse model of viremia; type: in vivo
# Experimental: To model ADE, mice were injected IP (intraperitoneal) with […] of mouse monoclonal antibody against the (DENV) E protein (4G2 clone) one day prior to infection. (9) For treatment, celgosivir was injected IP once or twice daily for a total of 5 days. Mice were monitored every day till Day 12 post infection. The data were plotted as Kaplan-Meier curves using Prism 5.0 software.
# To evaluate the effect of dose and dose schedule, four drug regimens were studied in the ADE viremia model: 10, 25 and 50 mg/kg BID and 100 mg/kg QD (once daily). For the BID schedule, survival increased with increasing dose with survival rates of 13%, 63% and 100% for 10, 25, and 50 mg/kg BID.
# Even when treatment was delayed (FIG. 5A), celgosivir (50 mg/kg BID) exerted a protective effect. In this experiment, survival at Day 12 was 100%, 75%, and 50% when treatment was immediate, delayed 24 hr or delayed 48 hr after DENV2 infection, respectively, in the ADE model; by contrast, none (0%) of the sham-treated mice survived past day 5 (FIG. 5B). Viremia, as determined by plaque assay, in celgosivir-treated mice (50 mg/kg BID) was 8.3% of levels in sham-treated mice after only 1 day of dosing. By study day 3, viremia had increased in untreated mice by more than 7-fold.
# DENV2 (TSV01 strain) = assay: Cell-based flaviviral immunodetection assay (CFI), DENV2; details: Dengue virus, DENV2, BHK-21, 48 h, DENV2, BHK21 cells
# Experimental: BHK21 cells were seeded at 1.3×104 in 96-well plate and incubated overnight at 37° C. in 5% CO2 incubator. Confluent monolayer of BHK21 cells were infected with DENV2 (TSV01 strain) at an MOI (multiplicity of infection) 0.3 in the presence of various concentrations of test compounds and incubated for 1 hour at 37° C. in 5% CO2 incubator. Infected cells were incubated with test compounds for another 48 hours at 37° C. in 5A CO2. Cells were fixed with methanol and mouse monoclonal antibody 4G2 was used to detect DENV E protein, which was quantified using a secondary anti-mouse antibody conjugated with horseradish peroxidase (HRP). Absorbance was read at 450 nm and dose-response curve was plotted accordingly. The 50% effective concentration (EC50), that is, the concentration of the test compound that decreased the level of viral E protein production by 50%, was calculated by nonlinear regression analysis.
smiles,measurement,setting,value
"CCCC(=O)O[C@H]1CN2CC[C@H](O)[C@@H]2[C@@H](O)[C@@H]1O.Cl [Celgosivir, celgosivir]",EC50,DENV1-4,0.31 to 0.65 µM
same,reduction of viremia,DENV2 [1]; given at the time of infection,88%
same,reduction of viremia,DENV2 [1]; treatment delayed by 24 hours,55%
same,survival at Day 12,DENV2 [2]; 10 mg/kg BID for 5 days,12% and 13%
same,survival at Day 12,DENV2 [2]; 25 mg/kg BID for 5 days,62% and 63%
same,survival at Day 12,"DENV2 [2]; 50 mg/kg BID for 5 days, immediate treatment",100%
same,"viremia, of levels in sham-treated mice","DENV2 [2]; 50 mg/kg BID, after 1 day of dosing, plaque assay",8.3%
same,"viremia, of levels in sham-treated mice","DENV2 [2]; 50 mg/kg BID, study day 3, delayed 24 hr",26%
same,"viremia, of levels in sham-treated mice","DENV2 [2]; 50 mg/kg BID, study day 3, delayed 48 hr",69%
same,"viremia, of levels in sham-treated mice","DENV2 [2]; 50 mg/kg BID, study day 3, immediate treatment",17%
same,survival at Day 12,"DENV2 [2]; 50 mg/kg BID, treatment delayed 24 hr",75%
same,survival at Day 12,"DENV2 [2]; 50 mg/kg BID, treatment delayed 48 hr",50%
same,survival (in words),DENV2 [2]; 100 mg/kg once daily (QD),no mice survived past day 6; also recorded: none surviving past Day 6
same,survival at Day 12,DENV2 [2]; 100 mg/kg once daily (QD),0%
same,EC50,DENV2 (TSV01 strain),0.22 µM
